SMILES strings stand for the structures.

What is called IC50 is the concentration that gives 50% inhibition.

The experiment deals with HPK1 (Homo sapiens, UniProt Q92918). The experiment can be described thus: SLP76 phosphorylation assay (intracellular HPK1 inhibitory activity, p-SLP76 S376 ELISA in Jurkat cells). The conditions noted are these: p-SLP76 IC50, Jurkat, Clone E6-1 cells; 1 h compound pre-incubation; anti-CD3 beads stimulation 20 min; Phospho-SLP-76 (Ser376) ELISA. In general terms: An ELISA detects its analyte on a solid surface through an enzyme-linked reagent.
HPK1, sequence (Q92918 whole entry): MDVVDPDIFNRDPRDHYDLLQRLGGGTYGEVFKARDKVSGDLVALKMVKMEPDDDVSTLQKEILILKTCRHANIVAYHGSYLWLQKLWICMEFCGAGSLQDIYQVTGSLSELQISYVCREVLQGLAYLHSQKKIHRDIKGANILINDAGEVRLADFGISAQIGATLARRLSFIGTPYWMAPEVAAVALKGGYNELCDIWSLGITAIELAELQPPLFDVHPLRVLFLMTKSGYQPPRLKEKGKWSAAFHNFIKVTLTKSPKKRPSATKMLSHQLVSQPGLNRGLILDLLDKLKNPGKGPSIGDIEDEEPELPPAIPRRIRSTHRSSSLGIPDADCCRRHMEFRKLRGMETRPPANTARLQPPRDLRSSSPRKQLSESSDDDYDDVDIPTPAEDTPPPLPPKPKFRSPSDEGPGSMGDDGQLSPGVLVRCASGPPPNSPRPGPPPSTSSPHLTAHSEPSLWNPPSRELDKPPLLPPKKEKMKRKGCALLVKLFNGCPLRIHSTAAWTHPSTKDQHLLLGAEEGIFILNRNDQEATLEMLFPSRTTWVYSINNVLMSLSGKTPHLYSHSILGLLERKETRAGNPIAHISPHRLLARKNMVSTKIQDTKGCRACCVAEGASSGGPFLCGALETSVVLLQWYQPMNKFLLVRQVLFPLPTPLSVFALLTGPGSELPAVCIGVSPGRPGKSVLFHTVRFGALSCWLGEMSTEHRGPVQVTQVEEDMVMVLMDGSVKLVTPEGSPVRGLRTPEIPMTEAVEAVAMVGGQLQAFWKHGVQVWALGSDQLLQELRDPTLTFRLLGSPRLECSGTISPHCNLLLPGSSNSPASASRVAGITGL
Description: SLP76 Phosphorylation Assay
Intracellular HPK1 inhibitory activity was tested by the detection of SLP76 phosphorylation at S376.
Preparation of 1000× drug stock plate: a 1000× compound stock plate was prepared. […] The compound stock plate was sealed with a sealing film and stored in a −20° C. refrigerator for later use.
Preparation of Beads wash buffer: 0.1 mL FBS and 0.4 mL 0.5 M EDTA (with a final concentration of 2 mM) were added to 100 mL PBS and stored in a 4° C. refrigerator for later use.
100× Protease Inhibitor Cocktail in 1/20 total volume was added and stored on wet ice for later use. The buffer was ready to use.
Cell inoculation and dosing: the 1000× drug stock plate was taken and melted at room temperature in the dark. […] Jurkat cells in the logarithmic growth phase were selected and collected. […] The cells were inoculated into a 96-well plate (the volume was 90 μL per well), and a blank control well (without cells inoculation, and in which 110 μL of medium was added) was set. 10 μL of a drug-containing culture medium (10×) was transferred from the 10× drug intermediate plate into the 96-well cell plate (with a final concentration of 0.1% DMSO), and set a DMSO control group (in which 0.1% DMSO was added to the treated cells), a stimulated control group (in which 10 μL of culture medium was added to treat cells) and an unstimulated group (in which 10 μL of culture medium was added to treat cells). The wells were duplicated, gently patted, mixed, and then placed into a 5% CO2 incubator at 37° C. for 1 h.
Anti-CD3 beads stimulation: Dynabeads anti-human CD3 was taken, shaken, and mixed for 60 s. The required volume of beads was pipetted, and an equal volume or at least 1 mL of washing solution was added to wash once. Fresh complete medium was then added to resuspend and adjust the density of the beads to 4×10^7/mL, and the beads were placed on ice for later use. At the end of drug pre-incubation, the cell culture plate was taken out. 10 μL Dynabeads anti-human CD3 was added to each well to treat the cells, and 10 μL the culture medium was added to the unstimulated group. The cell culture plate was shaken to mix well at 2500 rpm for 10 s, and then placed into a 5% CO2 incubator at 37° C. and continued to culture for 20 min.
Detection of p-SLP76 protein level: PathScan Phospho-SLP-76 (Ser376) Sandwich ELISA Kit was applied to detect p-SLP76 protein level. At the end of the Anti-CD3 beads stimulation, the cell culture plate was removed from the incubator. […] After lysis, the cell culture plate was centrifuged at 4° C., 400×g for 5 min. 25 μL of sample and 75 μL of sample diluent were added to each well, and the plate was placed in a 5% CO2 incubator at 37° C. for 2 h. The subsequent detection steps were carried out following the kit instructions, and the absorbance (OD value) of each well was read at 450 nm by a microplate reader.
`O=C(N1CCc2cc(-c3cnc4[nH]cc(Cl)c4c3)cc([C@@H]3COCCN3)c2C1)C1(O)CCOCC1` [Compound Z485, (R)-(6-(3-chloro-1H-pyrrolo[2,3-b]pyridin-5-yl)-8-(morpholin-3-yl)-3,4-dihydroisoquinolin-2(1H)-yl)(4-hydroxytetrahydro-2H-pyran-4-yl)methanone] had an IC50 of 126 nM.

Consider `Cc1c[nH]c2ncc(-c3cc4c(c([C@@H]5COCCN5)c3)CN(C(=O)N3CC[C@@H](F)C3)CC4)cc12` [Compound Z486, ((R)-3-fluoropyrrolidin-1-yl)(6-(3-methyl-1H-pyrrolo[2,3-b]pyridin-5-yl)-8-((R)-morpholin-3-yl)-3,4-dihydroisoquinolin-2(1H)-yl)methanone], for which 153 nM corresponded to half-maximal inhibition (IC50).

In turn, `O=C(C1CCOCC1)N1CCc2c(cc(-c3cnc4[nH]cc(Cl)c4c3)cc2[C@@H]2COCCN2)C1` [Compound Z487, (R)-(7-(3-chloro-1H-pyrrolo[2,3-b]pyridin-5-yl)-5-(morpholin-3-yl)-3,4-dihydroisoquinolin-2(1H)-yl)(tetrahydro-2H-pyran-4-yl)methanone] showed an IC50 of 153 nM.

As for `Cc1c[nH]c2ncc(-c3cc4c(c([C@@H]5COCCN5)c3)CN(C3CCN(C)CC3)CC4)cc12` [Compound Z498, (R)-3-(6-(3-methyl-1H-pyrrolo[2,3-b]pyridin-5-yl)-2-(1-methylpiperidin-4-yl)-1,2,3,4-tetrahydroisoquinolin-8-yl)morpholine], the IC50 turned out to be 195 nM.

Consider `O=S(=O)(C1CC1)N1CCc2cc(-c3cnc4[nH]cc(Cl)c4c3)cc([C@@H]3COCCN3)c2C1` [Compound Z499, (R)-3-(6-(3-chloro-1H-pyrrolo[2,3-b]pyridin-5-yl)-2-(cyclopropylsulfonyl)-1,2,3,4-tetrahydroisoquinolin-8-yl)morpholine], for which it took 219 nM to reach half-maximal inhibition (IC50).

In the case of `C[C@@H]1COCCN1C(=O)N1CCc2cc(-c3cnc4[nH]cc(Cl)c4c3)cc([C@@H]3COCCN3)c2C1` [Compound Z500, (6-(3-chloro-1H-pyrrolo[2,3-b]pyridin-5-yl)-8-((R)-morpholin-3-yl)-3,4-dihydroisoquinolin-2(1H)-yl)((R)-3-methylmorpholine)methanone], the IC50 worked out at 143 nM.

Consider `CS(=O)(=O)N1CCc2cc(-c3cnc4[nH]cc(Cl)c4c3)cc([C@@H]3COCCN3)c2C1` [Compound Z501, (R)-3-(6-(3-chloro-1H-pyrrolo[2,3-b]pyridin-5-yl)-2-(methylsulfonyl)-1,2,3,4-tetrahydroisoquinolin-8-yl)morpholine], for which the 50% inhibitory concentration (IC50) was 285 nM.

Molecule `C[C@@H]1CN(C(=O)N2CCc3cc(-c4cnc5[nH]cc(Cl)c5c4)cc([C@@H]4COCCN4)c3C2)CCO1` [Compound Z502, (6-(3-chloro-1H-pyrrolo[2,3-b]pyridin-5-yl)-8-((R)-morpholin-3-yl)-3,4-dihydroisoquinolin-2(1H)-yl)((R)-2-methylmorpholino)methanone] returned an IC50 of 169 nM.

In turn, `CC1(C)COCCN1C(=O)N1CCc2cc(-c3cnc4[nH]cc(Cl)c4c3)cc([C@@H]3COCCN3)c2C1` [Compound Z503, (R)-(6-(3-chloro-1H-pyrrolo[2,3-b]pyridin-5-yl)-8-(morpholin-3-yl)-3,4-dihydroisoquinolin-2(1H)-yl)(3,3-dimethylmorpholino)methanone] gave an IC50 of 168 nM.

Take `Cc1c[nH]c2ncc(-c3cc4c(c([C@@H]5COCCN5)c3)CN(C(=O)C3CC5CCC(C3)O5)CC4)cc12` (stereo partly drawn) [Compound Z504, (8-oxabicyclo[3.2.1]octan-3-yl)(6-(3-methyl-1H-pyrrolo[2,3-b]pyridin-5-yl)-8[(R)-morpholin-3-yl)-3,4-dihydroisoquinolin-2(1H)-yl)-methanone]: the IC50 amounted to 232 nM.

Molecule `Cc1c[nH]c2ncc(-c3cc4c(c([C@@H]5COCCN5)c3)CN(C(=O)C3(C)COC3)CC4)cc12` [Compound Z505, (R)-(6-(3-methyl-1H-pyrrolo[2,3-b]pyridin-5-yl)-8-(morpholin-3-yl)-3,4-dihydroisoquinolin-2(1H)-yl)(3-methyloxetan-3-yl)methanone] returned an IC50 of 263 nM.

`CC(C)(O)C(=O)N1CCc2cc(-c3cnc4[nH]cc(C#N)c4c3)cc([C@@H]3COCCN3)c2C1` [Compound Z506, (R)-5-(2-(2-hydroxy-2-methylpropanoyl)-8-(morpholin-3-yl)-1,2,3,4-tetrahydroisoquinolin-6-yl)-1H-pyrrolo[2,3-b]pyridine-3-carbonitrile] showed an IC50 of 685 nM.

Molecule `C=Cc1c[nH]c2ncc(-c3cc4c(c([C@@H]5COCCN5)c3)CN(C(=O)C(C)(C)O)CC4)cc12` [Compound Z508, (R)-2-hydroxy-2-methyl-1-(8-(morpholin-3-yl)-6-(3-vinyl-1H-pyrrolo[2,3-b]pyridin-5-yl)-3,4-dihydroisoquinolin-2(1H)-yl)propan-1-one] came in with an IC50 of 304 nM.

In turn, `Cc1c(F)[nH]c2ncc(-c3cc4c(c([C@@H]5COCCN5)c3)CN(C(=O)C(C)(C)O)CC4)cc12` [Compound Z510, (R)-1-(6-(2-fluoro-3-methyl-1H-pyrrolo[2,3-b]pyridin-5-yl)-8-(morpholin-3-yl)-3,4-tetrahydroisoquinolin-2(1H)-yl)-2-hydroxy-2-methylpropan-1-one] gave an IC50 of 283 nM.

Molecule `CCc1c(Cl)[nH]c2ncc(-c3cc4c(c([C@@H]5COCCN5)c3)CN(C(=O)N3CC5CCC(C3)O5)CC4)cc12` [Compound Z514, (8-oxo-3-azabicyclo[3.2.1]octane-3-yl)(6-(2-chloro-3-ethyl-1H-pyrrolo[2,3-b]pyridin-5-yl)-8-((R)-morpholin-3-yl)-3,4-dihydroisoquinolin-2(1H)-yl)methanone] returned an IC50 of 134 nM.

`N#Cc1c[nH]c2ncc(-c3cc4c(c([C@@H]5COCCN5)c3)CN(C(=O)N3CC5CCC(C3)O5)CC4)cc12` [Compound Z515, 5-(2-(8-oxa-3-azabicyclo[3.2.1]octane-3-carbonyl)-8-((R)-morpholin-3-yl)-1,2,3,4-tetrahydroisoquinolin-6-yl)-1H-pyrrolo[2,3-b]pyridine-3-carbonitrile] yielded an IC50 of 173 nM.

For the molecule `Cc1c[nH]c2ncc(-c3cc4c(c([C@@H]5COCCN5)c3)CN(C(=O)N3CC5CC(C3)O5)CC4)cc12` [Compound Z516, (6-oxa-3-azabicyclo[3.1.1]heptan-3-yl)-(6-(3-methyl-1H-pyrrolo[2,3-b]pyridin-5-yl)-8((R)-morpholin-3-yl)-3,4-dihydroisoquinolin-2(1H)-yl)methanone], the IC50 was 161 nM.

In turn, `Cc1c[nH]c2ncc(-c3cc4c(c([C@@H]5COCCN5)c3)CN(C(=O)N3C[C@@H](C)O[C@@H](C)C3)CC4)cc12` [Compound Z519, ((2R,6S)-2,6-dimethylmorpholine)(6-(3-methyl-1H-pyrrolo[2,3-b]pyridin-5-yl)-8-((R)-morpholin-3-yl)-3,4-dihydroisoquinolin-2-1H-yl)methanone] came in with a half-inhibitory concentration (IC50) of 197 nM.

`O=C(N1CCc2cc(-c3cnc4[nH]cc(F)c4n3)cc([C@@H]3COCCN3)c2C1)N1CC2CCC(C1)O2` [Compound Z522, (8-oxa-3-azabicyclo[3.2.1]octan-3-yl)(6-(7-fluoro-5H-pyrrolo[2,3-b]pyrazin-2-yl)-8-((R)-morpholin-3-yl)-3,4-dihydroisoquinolin-2(1H)-yl)methanone]: the IC50 came to 110 nM.

`O=C(N1CCOCC1)N1CCc2cc(-c3cnc4[nH]cc(Cl)c4n3)cc([C@@H]3COCCN3)c2C1` [Compound Z527, (R)-(6-(7-chloro-5H-pyrrolo[2,3-b]pyrazin-2-yl)-8-(morpholin-3-yl)-3,4-dihydroisoquinolin-2(1H)-yl)(morpholino)methanone] registered a 50% inhibitory concentration (IC50) of 164 nM.

Consider `Cc1cc(C(=O)N2CCc3cc(-c4cnc5[nH]cc(Cl)c5c4)cc([C@@H]4COCCN4)c3C2)nc(C)n1` [Compound Z531, (R)-(6-(3-chloro-1H-pyrrolo[2,3-b]pyridin-5-yl)-8-(morpholin-3-yl)-3,4-dihydroisoquinolin-2(1H)-yl)(2,6-dimethylpyrimidin-4-yl)methanone], for which 385 nM corresponded to half-maximal inhibition (IC50).

`Cc1ncc(C(=O)N2CCc3cc(-c4cnc5[nH]cc(Cl)c5c4)cc([C@@H]4COCCN4)c3C2)cn1` [Compound Z532, (R)-(6-(3-50 chloro-1H-pyrrolo[2,3-b]pyridin-5-yl)-8-(morpholin-3-yl)-3,4-dihydroisoquinolin-2(1H)-yl)(2-methylpyrimidin-5-yl)methanone] came in with an IC50 of 394 nM.

As to `CCc1c[nH]c2ncc(-c3cc4c(c([C@@H]5COCCN5)c3)CN(C(=O)c3cnc(C)nc3)CC4)nc12` [Compound Z533, (R)-(6-(7-ethyl-5H-pyrrolo[2,3-b]pyrazin-2-yl)-8-(morpholin-3-yl)-3,4-dihydroisoquinolin-2(1H)-yl)(2-methylpyrimidin-5-yl)methanone], the half-inhibitory concentration (IC50) came to 229 nM.

`Cc1c[nH]c2ncc(-c3cc4c(c([C@@H]5COCCN5)c3)CN(CC3(O)CCOCC3)CC4)cc12` [Compound Z538, (R)-4-((6-(3-methyl-1H-pyrrolo[2,3-b]pyridin-5-yl)-8-(morpholin-3-yl)-3,4-dihydroisoquinolin-2(1H)-yl)methyl)tetrahydro-2H-pyran-4-ol] came in with an IC50 of 1050 nM.

The molecule `CCc1c[nH]c2ncc(-c3cc4c(c([C@@H]5COCCN5)c3)CN(C(=O)C(C)(C)O)CC4)nc12` [Compound Z540, (R)-1-(6-(7-ethyl-5H-pyrrolo[2,3-b]pyrazin-2-yl)-8-(morpholin-3-yl)-3,4-dihydroisoquinolin-2(1H)-yl)-2-hydroxy-2-methylpropan-1-one] came in with an IC50 of 524 nM.

For the molecule `O=C(C1CCOCC1)N1CCc2cc(-c3cnc4[nH]cc(Cl)c4c3)cc([C@@H]3COCCN3)c2C1` [Compound Z543, (R)-[6-(3-chloro-1H-pyrrolo[2,3-b]pyridin-5-yl)-8-(morpholin-3-yl)-3,4-dihydroisoquinolin-2(1H)-yl](tetrahydro-2H-pyran-4-yl)methanone], the midpoint of inhibition, the IC50, lay at 236 nM.

For the molecule `Cc1cc(-c2c[nH]c3ncc(-c4cc5c(c([C@@H]6COCCN6)c4)CN(C(=O)C(C)(C)O)CC5)cc23)c(C)cn1` [Compound Z545, (R)-1-(6-(3-(2,5-dimethylpyridin-4-yl)-1H-pyrrolo[2,3-b]pyridin-5-yl)-8-(morpholin-3-yl)-3,4-dihydroisoquinolin-2(1H)-yl)-2-hydroxy-2-methylpropan-1-one], it took 560 nM to reach half-maximal inhibition (IC50).

For the origin of these results see US20250084078A1, “FUSED RING-SUBSTITUTED SIX-MEMBERED HETEROCYCLIC COMPOUND, AND PREPARATION METHOD THEREFOR AND USE THEREOF” (GENFLEFT THERAPEUTICS (SHANGHAI) INC., priority 2022, published 2025).
